Measured values published in ChEMBL document CHEMBL3988442, “University of Dundee, Small-Polar-MMV Screening Library” (2021).
Values joined by “and” are separate entries in the source; they are usually repeats but may differ in a detail not shown here. Equal values may be shown once.

Key:
[1] = target: T1, Arginase-2, mitochondrial (Homo sapiens, UniProt P78540); assay: in vitro enzyme assay to detect the production of urea directly proportional to the activity of Arginase II; type: functional
T1 sequence (P78540 whole entry): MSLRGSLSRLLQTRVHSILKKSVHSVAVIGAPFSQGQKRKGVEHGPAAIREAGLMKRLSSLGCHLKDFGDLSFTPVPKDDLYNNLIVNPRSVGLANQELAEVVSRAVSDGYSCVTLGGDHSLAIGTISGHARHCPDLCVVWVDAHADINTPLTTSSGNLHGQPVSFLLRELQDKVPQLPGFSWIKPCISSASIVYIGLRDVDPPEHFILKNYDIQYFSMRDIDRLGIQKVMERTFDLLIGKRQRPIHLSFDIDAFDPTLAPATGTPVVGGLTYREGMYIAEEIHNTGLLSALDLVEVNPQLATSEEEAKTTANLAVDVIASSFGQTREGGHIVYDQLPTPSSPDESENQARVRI

[2] = target: Chromo domain-containing protein 1 (Saccharomyces cerevisiae (strain ATCC 204508 / S288c) (Baker's yeast), UniProt P32657); assay: ScCHD-1 Enzyme Inhibition Assay; type: functional
Chain of Chromo domain-containing protein 1 (P32657 whole entry, the tested form may be a part): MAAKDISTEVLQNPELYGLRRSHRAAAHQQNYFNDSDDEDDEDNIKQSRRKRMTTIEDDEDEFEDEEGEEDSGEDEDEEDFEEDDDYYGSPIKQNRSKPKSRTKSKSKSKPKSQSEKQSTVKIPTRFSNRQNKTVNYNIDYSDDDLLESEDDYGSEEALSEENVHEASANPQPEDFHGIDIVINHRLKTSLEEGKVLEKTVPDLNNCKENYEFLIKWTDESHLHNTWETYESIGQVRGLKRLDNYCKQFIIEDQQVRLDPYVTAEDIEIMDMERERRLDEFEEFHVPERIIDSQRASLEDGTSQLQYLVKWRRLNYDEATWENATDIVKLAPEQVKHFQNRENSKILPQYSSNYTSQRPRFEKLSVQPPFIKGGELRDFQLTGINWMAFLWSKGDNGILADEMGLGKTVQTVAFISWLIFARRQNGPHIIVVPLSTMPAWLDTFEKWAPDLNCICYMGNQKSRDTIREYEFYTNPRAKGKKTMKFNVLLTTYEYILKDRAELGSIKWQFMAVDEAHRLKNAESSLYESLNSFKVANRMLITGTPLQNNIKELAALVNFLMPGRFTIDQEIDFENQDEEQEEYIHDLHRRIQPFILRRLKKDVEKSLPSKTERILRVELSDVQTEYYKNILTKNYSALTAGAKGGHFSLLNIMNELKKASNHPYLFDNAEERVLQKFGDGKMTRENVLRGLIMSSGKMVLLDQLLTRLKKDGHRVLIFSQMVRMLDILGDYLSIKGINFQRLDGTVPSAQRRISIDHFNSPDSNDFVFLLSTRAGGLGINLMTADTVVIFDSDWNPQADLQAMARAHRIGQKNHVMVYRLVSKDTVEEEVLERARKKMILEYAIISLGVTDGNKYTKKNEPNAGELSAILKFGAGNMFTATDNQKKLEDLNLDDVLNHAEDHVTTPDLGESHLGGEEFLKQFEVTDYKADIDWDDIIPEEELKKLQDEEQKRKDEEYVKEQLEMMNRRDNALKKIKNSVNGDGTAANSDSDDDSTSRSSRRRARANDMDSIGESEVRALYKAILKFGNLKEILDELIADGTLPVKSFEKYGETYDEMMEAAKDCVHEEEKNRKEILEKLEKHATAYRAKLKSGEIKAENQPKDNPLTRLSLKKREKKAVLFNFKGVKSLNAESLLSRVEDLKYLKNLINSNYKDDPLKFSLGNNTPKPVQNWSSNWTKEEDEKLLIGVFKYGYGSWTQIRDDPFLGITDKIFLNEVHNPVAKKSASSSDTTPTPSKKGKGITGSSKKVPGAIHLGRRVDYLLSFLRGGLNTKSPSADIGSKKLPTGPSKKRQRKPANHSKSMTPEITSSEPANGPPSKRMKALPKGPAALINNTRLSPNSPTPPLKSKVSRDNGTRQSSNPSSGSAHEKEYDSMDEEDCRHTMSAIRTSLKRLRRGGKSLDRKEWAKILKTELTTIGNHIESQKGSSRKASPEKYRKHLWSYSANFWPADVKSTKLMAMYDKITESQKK

Lysine--tRNA ligase = Lysine--tRNA ligase (Plasmodium falciparum (isolate 3D7), UniProt Q8IDJ8); assay: Pf-KRS-1 (Lysyl-RNA Synthetase-1, KRS-1, cytosolic KRS) from Plasmodium falciparum. Inhibitor assay, 384 well plate, luminescence read.; type: functional
Chain of Lysine--tRNA ligase (Q8IDJ8 whole entry): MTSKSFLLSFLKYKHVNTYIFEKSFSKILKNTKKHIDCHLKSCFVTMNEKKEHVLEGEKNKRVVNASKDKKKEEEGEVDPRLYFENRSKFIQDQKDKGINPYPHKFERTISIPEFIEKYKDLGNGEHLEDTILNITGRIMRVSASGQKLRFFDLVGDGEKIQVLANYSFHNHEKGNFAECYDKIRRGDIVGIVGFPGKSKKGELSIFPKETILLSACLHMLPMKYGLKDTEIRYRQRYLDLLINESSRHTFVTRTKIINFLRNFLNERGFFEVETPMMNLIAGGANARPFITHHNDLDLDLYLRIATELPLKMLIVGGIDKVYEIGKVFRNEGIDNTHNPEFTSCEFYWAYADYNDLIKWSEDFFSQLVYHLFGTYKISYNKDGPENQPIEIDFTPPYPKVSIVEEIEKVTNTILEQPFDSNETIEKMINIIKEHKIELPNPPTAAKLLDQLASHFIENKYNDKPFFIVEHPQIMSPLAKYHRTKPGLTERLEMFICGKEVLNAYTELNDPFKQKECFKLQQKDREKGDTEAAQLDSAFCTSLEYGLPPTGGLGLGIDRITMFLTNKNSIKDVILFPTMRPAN

[3] = target: Protein translocase subunit SecA (Escherichia coli (strain K12), UniProt P10408); assay: Assay to Identify E. coli SecA ATPase Inhibitors; type: functional
Chain of Protein translocase subunit SecA (P10408 whole entry): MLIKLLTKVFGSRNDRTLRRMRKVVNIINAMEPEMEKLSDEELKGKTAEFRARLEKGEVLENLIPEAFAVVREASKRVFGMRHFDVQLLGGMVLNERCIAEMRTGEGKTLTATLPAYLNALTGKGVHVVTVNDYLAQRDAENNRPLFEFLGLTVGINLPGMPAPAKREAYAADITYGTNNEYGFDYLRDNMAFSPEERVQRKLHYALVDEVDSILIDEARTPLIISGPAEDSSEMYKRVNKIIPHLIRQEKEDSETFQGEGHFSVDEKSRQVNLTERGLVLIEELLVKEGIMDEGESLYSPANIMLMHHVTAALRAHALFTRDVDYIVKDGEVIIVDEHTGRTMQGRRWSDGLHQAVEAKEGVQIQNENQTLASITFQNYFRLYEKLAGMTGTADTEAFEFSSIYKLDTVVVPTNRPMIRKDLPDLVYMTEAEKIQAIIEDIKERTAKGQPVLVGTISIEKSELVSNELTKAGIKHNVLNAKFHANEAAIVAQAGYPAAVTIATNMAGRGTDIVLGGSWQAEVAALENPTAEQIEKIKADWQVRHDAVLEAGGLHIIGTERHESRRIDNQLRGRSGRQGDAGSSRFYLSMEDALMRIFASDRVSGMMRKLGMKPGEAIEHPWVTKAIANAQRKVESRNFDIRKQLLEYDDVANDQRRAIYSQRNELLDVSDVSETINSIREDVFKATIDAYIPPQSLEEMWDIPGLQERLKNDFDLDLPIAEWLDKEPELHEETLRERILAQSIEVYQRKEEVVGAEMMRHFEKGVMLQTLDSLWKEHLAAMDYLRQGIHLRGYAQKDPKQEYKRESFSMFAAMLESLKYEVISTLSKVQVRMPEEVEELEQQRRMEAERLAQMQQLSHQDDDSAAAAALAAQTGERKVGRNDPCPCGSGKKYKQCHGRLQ

Histidine--tRNA ligase [4] = target: T2, Histidine--tRNA ligase (Leishmania infantum, UniProt A4I591); assay: Leishmania infantum Histidine tRNA synthetase (LdHisRS); type: functional
T2 sequence (A4I591 whole entry): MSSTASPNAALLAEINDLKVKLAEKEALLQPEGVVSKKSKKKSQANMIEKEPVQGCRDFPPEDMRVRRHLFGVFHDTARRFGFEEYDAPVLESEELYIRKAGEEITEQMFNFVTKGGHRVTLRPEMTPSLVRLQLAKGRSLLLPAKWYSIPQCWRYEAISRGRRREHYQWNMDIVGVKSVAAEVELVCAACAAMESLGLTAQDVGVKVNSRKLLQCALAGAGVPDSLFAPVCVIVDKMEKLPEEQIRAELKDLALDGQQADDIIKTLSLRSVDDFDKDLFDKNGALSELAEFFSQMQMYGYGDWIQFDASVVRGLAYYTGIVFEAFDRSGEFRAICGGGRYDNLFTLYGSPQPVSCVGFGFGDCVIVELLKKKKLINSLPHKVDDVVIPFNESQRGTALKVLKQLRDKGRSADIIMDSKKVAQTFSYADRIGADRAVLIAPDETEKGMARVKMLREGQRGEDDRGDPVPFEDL

Histidine--tRNA ligase [5] = target: T3, Histidine--tRNA ligase (Trypanosoma cruzi (strain CL Brener), UniProt Q4DA54); assay: Trypanosoma cruzi histidyl tRNA synthetase (Tc-HisRS); type: functional
T3 sequence (Q4DA54 whole entry): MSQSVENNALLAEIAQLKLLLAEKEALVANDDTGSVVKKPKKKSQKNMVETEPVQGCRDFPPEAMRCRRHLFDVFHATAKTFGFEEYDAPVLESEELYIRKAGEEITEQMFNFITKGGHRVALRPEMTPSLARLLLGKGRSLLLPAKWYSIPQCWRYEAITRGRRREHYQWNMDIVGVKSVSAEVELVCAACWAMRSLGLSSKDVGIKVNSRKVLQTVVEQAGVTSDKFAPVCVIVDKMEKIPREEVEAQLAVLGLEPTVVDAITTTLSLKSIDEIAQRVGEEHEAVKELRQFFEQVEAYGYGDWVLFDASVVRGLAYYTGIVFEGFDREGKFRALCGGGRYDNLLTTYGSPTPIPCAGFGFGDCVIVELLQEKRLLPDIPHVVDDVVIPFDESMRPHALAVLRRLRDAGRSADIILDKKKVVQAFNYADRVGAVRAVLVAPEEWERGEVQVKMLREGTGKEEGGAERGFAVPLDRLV

Schistosoma mansoni = assay: High throughput screening of compounds against Schistosoma mansoni motility; type: functional; set-up: dose or concentration left out as unconfirmed
[6] = microbe, parasite or virus in culture; settings: Mycobacterium tuberculosis, 72 h, read-out: pIC50 (converted)
[7] = microbe, parasite or virus in culture; settings: Mycobacterium tuberculosis, 96 h, read-out: pIC50 (converted)
ClpP1P2 = ClpP1P2 (Mycobacterium tuberculosis (strain ATCC 25618 / H37Rv), UniProt P9WPC3+P9WPC5); assay: in vitro assay to detect presence of AMC directly proportional to the activity of ClpP1P2. GHDDI collaboration.; type: functional
Chain of ClpP1P2 (P9WPC5 whole entry): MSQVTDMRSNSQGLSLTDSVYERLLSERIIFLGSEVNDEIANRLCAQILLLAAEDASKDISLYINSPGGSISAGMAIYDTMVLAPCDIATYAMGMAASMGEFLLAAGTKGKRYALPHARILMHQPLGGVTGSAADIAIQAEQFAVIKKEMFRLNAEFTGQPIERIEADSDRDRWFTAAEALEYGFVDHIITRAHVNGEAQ
Chain of ClpP1P2 (P9WPC3 whole entry): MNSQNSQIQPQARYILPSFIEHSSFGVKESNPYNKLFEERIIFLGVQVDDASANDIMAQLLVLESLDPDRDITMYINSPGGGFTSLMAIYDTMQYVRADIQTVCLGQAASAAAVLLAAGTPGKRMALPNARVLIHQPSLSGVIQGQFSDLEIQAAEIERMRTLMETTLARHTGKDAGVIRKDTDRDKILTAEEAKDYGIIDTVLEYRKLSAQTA

Question: For COc1ccc2c(c1)OCC(CNC(=O)c1ccncc1)C2 (stereo not drawn), which IC50 [1] is on record?
Answer: Its IC50 is > 100 µM.

Question: And the IC50 [2]?
Answer: Its IC50 is > 29.5 µM.

Question: For CNc1nc2c(s1)C(c1c(Cl)cccc1Cl)CC(=O)N2 (stereo not drawn), which IC50 (Lysine--tRNA ligase) is on record?
Answer: Its IC50 is > 50.1 µM.

Question: And the IC50 [3]?
Answer: Its IC50 is 89.4 µM and 43.2 µM.

Question: And the IC50 (Histidine--tRNA ligase [4])?
Answer: Its IC50 is 20.8 µM and 17.5 µM.

Question: And the IC50 (Histidine--tRNA ligase [5])?
Answer: Its IC50 is 21.3 µM and 23 µM.

Question: Which IC50 (Lysine--tRNA ligase) does the source give for CNc1nc2c(s1)C(c1ccc(F)cc1Cl)CC(=O)N2 (stereo not drawn) here?
Answer: Its IC50 is > 50.1 µM.

Question: What about the IC50 [3] of the same compound?
Answer: Its IC50 is > 100 µM.

Question: And the IC50 (Histidine--tRNA ligase [5])?
Answer: Its IC50 is 22.8 µM and 15.7 µM.

Question: For Cc1nc(CCNC(=O)N2CCC(Cc3cnn(C)c3)C2)cs1 (stereo not drawn), which IC50 [1] is on record?
Answer: Its IC50 is > 100 µM.

Question: Which IC50 [1] does the source give for Cc1cnc(CN(Cc2ccccc2)CC(O)c2cccs2)cn1 (stereo not drawn) here?
Answer: The IC50 was > 100 µM.

Question: For CCn1cc(CN(C)S(=O)(=O)c2cnn(CC)c2C)c(C)n1, which IC50 [3] is on record?
Answer: The IC50 was > 100 µM.

Question: What does the source list for CC(C)CN1CCC(NC(=O)c2ccc(F)cc2I)CC1?
Answer: IC50 [1]: > 100 µM; Percent Effect (Schistosoma mansoni): 28.14%

Question: For CNc1nc2c(s1)C(c1cccc(Cl)c1Cl)CC(=O)N2 (stereo not drawn), which IC50 (Lysine--tRNA ligase) is on record?
Answer: The IC50 was > 50.1 µM.

Question: What about the IC50 [3] of the same compound?
Answer: The IC50 was 37.8 µM and > 100 µM.

Question: And the IC50 (Histidine--tRNA ligase [5])?
Answer: Its IC50 is 10.4 µM and 11.2 µM.

Question: Which IC50 [3] does the source give for CCc1c(C(=O)NCC2CCS(=O)(=O)C2)cnn1-c1ccc(C)cc1 (stereo not drawn) here?
Answer: Its IC50 is > 100 µM.

Question: Which IC50 [1] does the source give for COc1cccc([C@@H]2CN(C(=O)c3ccc(C)cc3O)C[C@H]2C(=O)O)c1 here?
Answer: Its IC50 is > 100 µM.

Question: Which IC50 [1] does the source give for O=C(Cn1nc2c(cc1=O)CSCC2)NC(Cc1ccccc1)C(=O)O (stereo not drawn) here?
Answer: The IC50 was > 100 µM.

Question: Which IC50 (Lysine--tRNA ligase) does the source give for Nc1nc2c(s1)C(c1c(F)cccc1Cl)CC(=O)N2 (stereo not drawn) here?
Answer: Its IC50 is > 50.1 µM.

Question: And the IC50 [3]?
Answer: Its IC50 is > 100 µM.

Question: And the IC50 (Histidine--tRNA ligase [4])?
Answer: The IC50 was 3.22 µM and 4.42 µM.

Question: And the IC50 (Histidine--tRNA ligase [5])?
Answer: Its IC50 is 9.65 µM and 7.68 µM.

Question: For O=C1CSC(c2ccsc2)c2c(n(C3CCOCC3)[nH]c2=O)N1 (stereo not drawn), which IC50 [1] is on record?
Answer: Its IC50 is > 100 µM.

Question: For Cc1ncsc1CCC(=O)N1CCCC[C@H](N(C)C)C1, which IC50 [1] is on record?
Answer: Its IC50 is > 100 µM.

Question: With COc1ccc(-c2nc(CN3CC(n4cc(C)cn4)C3)no2)cc1 as the compound, how does the IC50 [1] read?
Answer: Its IC50 is > 100 µM.

Question: And the IC50 [6]?
Answer: The IC50 was 47 µM.

Question: What about the IC50 [7] of the same compound?
Answer: The IC50 was 39.7 µM.

Question: For COCCNC(=O)c1cn(C(C)(C)C)c2ncccc12, which IC50 [3] is on record?
Answer: Its IC50 is > 100 µM.

Question: Which IC50 [3] does the source give for COCC(C)NC(=O)c1cn(C(C)(C)C)c2ncccc12 (stereo not drawn) here?
Answer: Its IC50 is > 100 µM.

Question: Which IC50 [3] does the source give for CCCc1c(C(=O)NC2CCCC2)nnn1-c1ccc(OC)cc1 here?
Answer: Its IC50 is > 100 µM.

Question: Which IC50 [1] does the source give for Cc1[nH]ccc1C(=O)N1CCCC(c2nccn2Cc2cscn2)C1 (stereo not drawn) here?
Answer: The IC50 was > 100 µM.

Question: With CCNC(=O)Nc1ccc2c(ccn2CC(=O)N(CC)CC)c1 as the compound, how does the IC50 [3] read?
Answer: Its IC50 is > 100 µM.

Question: For Cc1ccc2c(ccn2CCC(=O)O)c1, which IC50 [3] is on record?
Answer: The IC50 was > 100 µM.

Question: For CNC(=O)[C@H]1C[C@@H]2CN(C(=O)c3ccco3)C[C@@H]2N1S(C)(=O)=O, which IC50 [1] is on record?
Answer: The IC50 was > 100 µM.

Question: Which IC50 (Lysine--tRNA ligase) does the source give for CNc1nc2c(s1)C(c1cc(Cl)ccc1F)CC(=O)N2 (stereo not drawn) here?
Answer: The IC50 was > 50.1 µM.

Question: And the IC50 [3]?
Answer: Its IC50 is > 100 µM.

Question: What about the IC50 (ClpP1P2) of the same compound?
Answer: Its IC50 is > 100 µM.

Question: What about the IC50 (Histidine--tRNA ligase [5]) of the same compound?
Answer: Its IC50 is 19.4 µM and 20.6 µM.

Question: For C[S+]([O-])CCCNC(=O)c1cc(Br)c2c(c1)OCCO2 (stereo not drawn), which IC50 [1] is on record?
Answer: Its IC50 is > 100 µM.

Question: Which IC50 [3] does the source give for CC1(C)OCC(CNC(=O)c2cnn(-c3cc(Cl)ccc3Cl)c2N)O1 (stereo not drawn) here?
Answer: Its IC50 is > 100 µM.

Question: For Cc1nc(NCC2CC2)nc2c1COCC21CCN(C)C1 (stereo not drawn), which IC50 [1] is on record?
Answer: Its IC50 is > 100 µM.

Question: Which IC50 [1] does the source give for O=C(NCc1ccccn1)[C@]12COC[C@H]1CN(C1CCC1)C2 here?
Answer: The IC50 was > 100 µM.

Question: Which IC50 (Lysine--tRNA ligase) does the source give for CNc1nc2c(s1)C(c1ccc(Cl)cc1Cl)CC(=O)N2 (stereo not drawn) here?
Answer: The IC50 was > 50.1 µM.

Question: What about the IC50 [3] of the same compound?
Answer: The IC50 was > 100 µM.

Question: And the IC50 (Histidine--tRNA ligase [4])?
Answer: Its IC50 is 4.56 µM and 3.65 µM.

Question: And the IC50 (Histidine--tRNA ligase [5])?
Answer: The IC50 was 10.3 µM and 10.6 µM.
